# Assay results published in publication PMC7736581, “Activation of the IRE1 RNase through remodeling of the kinase front pocket by ATP-competitive ligands” (Nature Communications, 2020).
# How the values were obtained:
# Experiment in all cases: biochemical
# Set-up in all cases: Invitrogen kinase panel: Z'Lyte activity (ATP at Km) or LanthaScreen competitive ATP-site binding, percent inhibition
# MST4 = target: T1, MST4 (Homo sapiens, UniProt Q9P289)
# T1 construct: gene STK26
# ROCK2 = ROCK2 (Homo sapiens, UniProt O75116)
# CSF1R = CSF1R (Homo sapiens, UniProt P07333)
# TNK2 = TNK2 (Homo sapiens, UniProt Q07912)
# SGK3 = SGK3 (Homo sapiens, UniProt Q96BR1)
# MSSK1 = target: T2, MSSK1 (Homo sapiens, UniProt Q9UPE1)
# T2 construct: gene SRPK3
# Hyl = target: T3, Hyl (Homo sapiens, UniProt P42679)
# T3 construct: gene MATK
# CLK1 = CLK1 (Homo sapiens, UniProt P49759)
# SGK2 = SGK2 (Homo sapiens, UniProt Q9HBY8)
# CSK = CSK (Homo sapiens, UniProt P41240)
# PRAK = target: T4, PRAK (Homo sapiens, UniProt Q8IW41)
# T4 construct: gene MAPKAPK5
# p38_alpha(direct) = target: T5, p38_alpha(direct) (Homo sapiens, UniProt Q16539)
# T5 construct: gene MAPK14; direct
# Flt1 = Flt1 (Homo sapiens, UniProt P17948)
# MKK6 = target: T6, MKK6 (Homo sapiens, UniProt P52564)
# T6 construct: gene MAP2K6
# PAK4 = PAK4 (Homo sapiens, UniProt O96013)
# PhK_gamma2 = target: T7, PhK_gamma2 (Homo sapiens, UniProt P15735)
# T7 construct: gene PHKG2
# TTK = TTK (Homo sapiens, UniProt P33981)
# Rse = target: T8, Rse (Homo sapiens, UniProt Q06418)
# T8 construct: gene TYRO3
# WEE1 = WEE1 (Homo sapiens, UniProt P30291)
# EphB3 = EphB3 (Homo sapiens, UniProt P54753)
# MAPKAPK3 = MAPKAPK3 (Homo sapiens, UniProt Q16644)
# PASK = PASK (Homo sapiens, UniProt Q96RG2)
# Mer = target: T9, Mer (Homo sapiens, UniProt Q12866)
# T9 construct: gene MERTK
# JNK1_alpha1 = target: T10, JNK1_alpha1 (Homo sapiens, UniProt P45983)
# T10 construct: gene MAPK8; isoform alpha1
# DDR1 = DDR1 (Homo sapiens, UniProt Q08345)
# Sequence of WEE1 (P30291 whole entry): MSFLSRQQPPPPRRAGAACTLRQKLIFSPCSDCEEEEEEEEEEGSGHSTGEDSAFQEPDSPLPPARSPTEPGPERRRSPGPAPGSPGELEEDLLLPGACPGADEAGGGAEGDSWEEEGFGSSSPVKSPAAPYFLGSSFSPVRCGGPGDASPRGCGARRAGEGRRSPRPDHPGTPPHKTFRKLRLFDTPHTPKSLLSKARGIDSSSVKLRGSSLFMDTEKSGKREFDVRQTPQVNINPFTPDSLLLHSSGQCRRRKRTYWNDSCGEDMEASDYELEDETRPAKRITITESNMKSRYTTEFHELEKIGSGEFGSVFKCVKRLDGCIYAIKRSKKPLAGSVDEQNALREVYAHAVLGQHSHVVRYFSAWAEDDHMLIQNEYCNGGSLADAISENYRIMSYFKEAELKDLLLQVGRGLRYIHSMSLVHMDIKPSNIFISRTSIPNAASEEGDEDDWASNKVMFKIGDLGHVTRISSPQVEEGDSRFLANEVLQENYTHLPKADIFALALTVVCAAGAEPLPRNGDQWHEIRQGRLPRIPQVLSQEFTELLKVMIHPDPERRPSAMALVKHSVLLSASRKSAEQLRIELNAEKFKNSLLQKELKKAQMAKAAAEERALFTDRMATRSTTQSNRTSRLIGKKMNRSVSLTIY
# Sequence of TTK (P33981 whole entry): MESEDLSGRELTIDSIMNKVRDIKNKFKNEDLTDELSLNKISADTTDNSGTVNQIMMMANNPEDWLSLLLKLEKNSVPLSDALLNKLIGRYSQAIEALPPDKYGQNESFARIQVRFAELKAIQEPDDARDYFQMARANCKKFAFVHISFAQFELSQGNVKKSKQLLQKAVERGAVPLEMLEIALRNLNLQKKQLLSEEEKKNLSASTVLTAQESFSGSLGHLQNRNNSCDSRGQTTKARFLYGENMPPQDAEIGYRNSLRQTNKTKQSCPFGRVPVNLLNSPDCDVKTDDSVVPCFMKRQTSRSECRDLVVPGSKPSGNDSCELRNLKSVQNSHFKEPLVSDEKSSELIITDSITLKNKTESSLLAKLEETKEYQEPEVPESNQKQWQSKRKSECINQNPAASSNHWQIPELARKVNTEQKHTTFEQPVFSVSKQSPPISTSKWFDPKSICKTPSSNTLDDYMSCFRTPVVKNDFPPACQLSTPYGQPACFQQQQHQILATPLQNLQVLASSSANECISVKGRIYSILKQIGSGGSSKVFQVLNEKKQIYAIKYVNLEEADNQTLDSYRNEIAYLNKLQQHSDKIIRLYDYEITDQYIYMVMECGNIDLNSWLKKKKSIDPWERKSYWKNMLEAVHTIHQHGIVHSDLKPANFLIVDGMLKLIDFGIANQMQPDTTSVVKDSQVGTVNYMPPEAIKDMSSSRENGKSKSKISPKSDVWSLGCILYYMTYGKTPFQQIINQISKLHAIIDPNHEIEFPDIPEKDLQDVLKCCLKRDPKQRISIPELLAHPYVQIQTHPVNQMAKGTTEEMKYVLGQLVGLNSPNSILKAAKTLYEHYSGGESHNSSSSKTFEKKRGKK
# T4 sequence (Q8IW41 whole entry): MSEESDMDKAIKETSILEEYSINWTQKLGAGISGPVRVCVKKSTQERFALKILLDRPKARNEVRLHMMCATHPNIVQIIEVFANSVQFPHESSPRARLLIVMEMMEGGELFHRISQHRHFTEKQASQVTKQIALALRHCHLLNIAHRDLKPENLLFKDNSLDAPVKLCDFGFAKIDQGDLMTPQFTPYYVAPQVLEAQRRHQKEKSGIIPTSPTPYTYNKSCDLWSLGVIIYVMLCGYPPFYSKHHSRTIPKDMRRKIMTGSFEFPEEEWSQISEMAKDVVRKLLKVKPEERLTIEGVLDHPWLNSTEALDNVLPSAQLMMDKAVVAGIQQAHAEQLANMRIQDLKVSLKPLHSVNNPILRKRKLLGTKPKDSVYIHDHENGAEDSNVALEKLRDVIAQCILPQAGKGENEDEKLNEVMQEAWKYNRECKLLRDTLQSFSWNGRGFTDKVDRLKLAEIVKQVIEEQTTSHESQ
# Sequence of PAK4 (O96013 whole entry): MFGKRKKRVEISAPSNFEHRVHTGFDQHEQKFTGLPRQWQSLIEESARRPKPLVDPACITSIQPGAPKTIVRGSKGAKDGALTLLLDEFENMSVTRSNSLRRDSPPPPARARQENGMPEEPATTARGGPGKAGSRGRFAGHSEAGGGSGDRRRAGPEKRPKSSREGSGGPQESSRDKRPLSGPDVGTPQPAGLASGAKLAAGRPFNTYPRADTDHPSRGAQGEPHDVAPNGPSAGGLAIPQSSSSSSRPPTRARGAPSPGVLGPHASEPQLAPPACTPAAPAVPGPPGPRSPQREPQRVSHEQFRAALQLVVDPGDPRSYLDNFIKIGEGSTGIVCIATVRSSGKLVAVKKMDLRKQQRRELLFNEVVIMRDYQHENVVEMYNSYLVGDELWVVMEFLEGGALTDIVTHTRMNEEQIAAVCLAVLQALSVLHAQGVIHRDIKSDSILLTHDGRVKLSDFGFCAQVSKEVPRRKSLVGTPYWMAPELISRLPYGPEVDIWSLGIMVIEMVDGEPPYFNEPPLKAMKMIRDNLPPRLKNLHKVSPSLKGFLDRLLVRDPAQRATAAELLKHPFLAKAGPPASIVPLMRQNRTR
# T7 sequence (P15735 whole entry): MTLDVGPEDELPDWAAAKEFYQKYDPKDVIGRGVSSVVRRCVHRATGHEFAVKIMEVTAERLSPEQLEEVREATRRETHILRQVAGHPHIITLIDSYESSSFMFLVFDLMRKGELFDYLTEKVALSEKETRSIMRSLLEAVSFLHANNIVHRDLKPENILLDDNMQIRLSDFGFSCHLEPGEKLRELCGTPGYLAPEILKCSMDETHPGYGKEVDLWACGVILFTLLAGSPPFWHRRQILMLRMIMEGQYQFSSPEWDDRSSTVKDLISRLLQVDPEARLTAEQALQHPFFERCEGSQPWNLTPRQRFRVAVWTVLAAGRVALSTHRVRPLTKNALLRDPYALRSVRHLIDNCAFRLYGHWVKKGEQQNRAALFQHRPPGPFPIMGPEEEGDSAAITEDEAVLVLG
# T9 sequence (Q12866 whole entry): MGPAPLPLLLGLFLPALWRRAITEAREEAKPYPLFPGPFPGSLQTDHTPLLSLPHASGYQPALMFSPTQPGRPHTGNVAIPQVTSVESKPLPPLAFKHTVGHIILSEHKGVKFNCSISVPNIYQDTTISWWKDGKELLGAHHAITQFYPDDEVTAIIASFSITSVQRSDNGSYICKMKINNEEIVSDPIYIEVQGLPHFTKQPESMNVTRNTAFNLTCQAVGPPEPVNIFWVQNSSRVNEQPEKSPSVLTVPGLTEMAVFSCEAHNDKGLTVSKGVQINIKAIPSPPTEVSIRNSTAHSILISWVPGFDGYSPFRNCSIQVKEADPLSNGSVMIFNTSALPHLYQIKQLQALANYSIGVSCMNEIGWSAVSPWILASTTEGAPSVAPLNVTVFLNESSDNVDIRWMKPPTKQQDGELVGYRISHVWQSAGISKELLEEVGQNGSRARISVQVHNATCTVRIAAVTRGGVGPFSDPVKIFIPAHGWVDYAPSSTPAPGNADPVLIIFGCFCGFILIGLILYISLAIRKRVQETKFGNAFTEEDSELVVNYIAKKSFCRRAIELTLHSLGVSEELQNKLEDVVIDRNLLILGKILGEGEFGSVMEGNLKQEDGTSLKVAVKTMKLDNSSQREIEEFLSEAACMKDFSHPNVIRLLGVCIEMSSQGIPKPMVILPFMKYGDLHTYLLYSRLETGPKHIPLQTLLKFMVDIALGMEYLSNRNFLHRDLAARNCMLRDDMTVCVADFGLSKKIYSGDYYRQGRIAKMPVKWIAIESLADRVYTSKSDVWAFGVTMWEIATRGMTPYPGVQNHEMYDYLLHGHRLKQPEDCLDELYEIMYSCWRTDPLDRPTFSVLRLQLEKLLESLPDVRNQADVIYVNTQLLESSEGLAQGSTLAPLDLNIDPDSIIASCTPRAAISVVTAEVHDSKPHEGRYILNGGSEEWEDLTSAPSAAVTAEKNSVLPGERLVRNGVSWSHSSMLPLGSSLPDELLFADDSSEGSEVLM
# T2 sequence (Q9UPE1 whole entry): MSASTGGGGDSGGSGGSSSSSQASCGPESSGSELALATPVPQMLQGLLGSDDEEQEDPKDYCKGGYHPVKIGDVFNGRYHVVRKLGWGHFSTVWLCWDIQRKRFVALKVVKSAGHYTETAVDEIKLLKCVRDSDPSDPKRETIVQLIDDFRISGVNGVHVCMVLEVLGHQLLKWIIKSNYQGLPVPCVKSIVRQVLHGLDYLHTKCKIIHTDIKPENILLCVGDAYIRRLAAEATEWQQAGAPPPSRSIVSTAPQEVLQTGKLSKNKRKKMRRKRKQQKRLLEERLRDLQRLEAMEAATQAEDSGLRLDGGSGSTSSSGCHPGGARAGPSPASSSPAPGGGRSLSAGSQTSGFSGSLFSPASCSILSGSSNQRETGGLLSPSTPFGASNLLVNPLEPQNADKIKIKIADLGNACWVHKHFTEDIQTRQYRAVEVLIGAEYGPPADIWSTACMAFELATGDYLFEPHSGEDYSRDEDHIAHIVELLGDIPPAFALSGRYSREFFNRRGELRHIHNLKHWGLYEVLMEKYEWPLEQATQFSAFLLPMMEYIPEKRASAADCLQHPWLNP
# T1 sequence (Q9P289 whole entry): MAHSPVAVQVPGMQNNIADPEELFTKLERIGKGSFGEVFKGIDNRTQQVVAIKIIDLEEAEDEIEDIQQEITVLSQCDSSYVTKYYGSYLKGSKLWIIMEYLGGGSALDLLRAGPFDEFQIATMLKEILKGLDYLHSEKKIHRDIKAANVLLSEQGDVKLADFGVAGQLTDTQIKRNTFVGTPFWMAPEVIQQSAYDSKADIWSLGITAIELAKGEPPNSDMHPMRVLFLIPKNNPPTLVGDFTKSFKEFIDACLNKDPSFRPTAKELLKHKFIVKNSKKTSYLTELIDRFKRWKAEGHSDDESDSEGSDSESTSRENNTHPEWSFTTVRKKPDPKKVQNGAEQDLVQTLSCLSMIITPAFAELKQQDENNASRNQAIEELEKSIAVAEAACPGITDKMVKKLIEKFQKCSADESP
Compound,inhibition at 1 µM (MST4),inhibition at 1 µM (ROCK2),inhibition at 1 µM (CSF1R),inhibition at 1 µM (TNK2),inhibition at 1 µM (SGK3),inhibition at 1 µM (MSSK1),inhibition at 1 µM (Hyl),inhibition at 1 µM (CLK1),inhibition at 1 µM (SGK2),inhibition at 1 µM (CSK),inhibition at 1 µM (PRAK),inhibition at 1 µM (p38_alpha(direct)),inhibition at 1 µM (Flt1),inhibition at 1 µM (MKK6),inhibition at 1 µM (PAK4),inhibition at 1 µM (PhK_gamma2),inhibition at 1 µM (TTK),inhibition at 1 µM (Rse),inhibition at 1 µM (WEE1),inhibition at 1 µM (EphB3),further results
CCOC(=O)Nc1cccc2c(Oc3ncccc3-c3ccnc(N[C@H]4CCCNC4)n3)c(C)ccc12 [G-1749],-12.5%,1%,7%,1%,-5.5%,-1.5%,6.5%,6%,3.5%,6%,0.5%,77.5%,-1%,-3.5%,0%,2.5%,16%,8.5%,-5%,3%,inhibition at 1 µM (MAPKAPK3): 12.5%; inhibition at 1 µM (PASK): 4.5%; inhibition at 1 µM (Mer): 4.5%; inhibition at 1 µM (JNK1_alpha1): 53.5%; inhibition at 1 µM (DDR1): 46%
CC#CC(=O)Nc1cccc2c(Oc3ncccc3-c3ccnc(N[C@H]4CCCNC4)n3)c(C)ccc12 [G-7658],-3.5%,-0.5%,-7.5%,2%,-2%,7%,6.5%,5.5%,1.5%,5.5%,-1%,36.5%,-1.5%,-2%,0%,4%,11.5%,6.5%,-0.5%,4.5%,inhibition at 1 µM (MAPKAPK3): 8%; inhibition at 1 µM (PASK): 9.5%; inhibition at 1 µM (Mer): 4.5%; inhibition at 1 µM (JNK1_alpha1): 72.5%; inhibition at 1 µM (DDR1): 29%
